In PubChem BioAssay AID248 (DTP/NCI, 2004) one finds T/C data, which are given here for 16 molecules.

Toxic doses and inconclusive results are not listed.

This test concerns L1210 leukemia ip in BDF1 mice, survival T/C. Put plainly: NCI In Vivo Anticancer Drug Screen. Data for tumor model L1210 Leukemia (intraperitoneal) in B6D2F1 (BDF1) mice. The settings on record: endpoint: mean survival time, higher = longer survival. In outline:
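Mice bearing the transplanted tumor received compound or vehicle. Survival of the treated group was divided by that of the vehicle-treated control group to give the ratio.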

The mark [1] stands for this setting: dose: 12.5 mg/kg/injection, schedule: Q04DX003 (ip), vehicle: saline.
Setting [2] is: dose: 25.0 mg/kg/injection, schedule: Q01DX009 (ip), vehicle: saline.
The mark [3] stands for this setting: dose: 50.0 mg/kg/injection, schedule: Q01DX009 (ip), vehicle: saline with Tween-80.
Setting [4] is: dose: 100.0 mg/kg/injection, schedule: Q01DX009 (ip), vehicle: saline with Tween-80.
[5] abbreviates: dose: 100.0 mg/kg/injection, schedule: Q04DX003 (ip), vehicle: saline with Tween-80.
Setting [6] is: dose: 200.0 mg/kg/injection, schedule: Q04DX003 (ip), vehicle: saline with Tween-80.
Setting [7] is: dose: 100.0 mg/kg/injection, schedule: Q01DX009 (ip), vehicle: Klucel (hydroxypropylcellulose) (HPC).
Where [8] appears, read: dose: 200.0 mg/kg/injection, schedule: Q01DX009 (ip), vehicle: Klucel (hydroxypropylcellulose) (HPC).
The mark [9] stands for this setting: dose: 400.0 mg/kg/injection, schedule: Q01DX009 (ip), vehicle: Klucel (hydroxypropylcellulose) (HPC).

As to `Cc1cc[n+](Cc2ccccc2Cl)c(C)c1`, the T/C runs as follows: (dose: 6.25 mg/kg/injection, schedule: Q01DX009 (ip), vehicle: saline) 105 % of control; (dose: 6.25 mg/kg/injection, schedule: Q04DX003 (ip), vehicle: saline) 96 % of control; (dose: 8.0 mg/kg/injection, schedule: Q01DX009 (ip), vehicle: saline) 99 % of control; (dose: 12.0 mg/kg/injection, schedule: Q01DX009 (ip), vehicle: saline) 96 % of control; under setting [1], 102 % of control; (dose: 18.0 mg/kg/injection, schedule: Q01DX009 (ip), vehicle: saline) 105 % of control. Moreover, the T/C under setting [2] is 113 % of control.

In the case of `C=CCCCCCCCCC(=O)NC/C(Br)=C/Br`, the T/C runs as follows: (dose: 75.0 mg/kg/injection, schedule: Q01DX009 (ip), vehicle: Klucel (hydroxypropylcellulose) (HPC)) 103 % of control; (dose: 150.0 mg/kg/injection, schedule: Q01DX009 (ip), vehicle: Klucel (hydroxypropylcellulose) (HPC)) 108 % of control; (dose: 300.0 mg/kg/injection, schedule: Q01DX009 (ip), vehicle: Klucel (hydroxypropylcellulose) (HPC)) 93 % of control.

As for `N#CCC(=O)O`, the T/C is, setting by setting: (dose: 18.75 mg/kg/injection, schedule: Q01DX009 (ip), vehicle: saline) 98 % of control; (dose: 37.5 mg/kg/injection, schedule: Q01DX009 (ip), vehicle: saline) 95 % of control; (dose: 75.0 mg/kg/injection, schedule: Q01DX009 (ip), vehicle: saline) 90 % of control.

With `CC#CC(O)(C(=O)OC1CCN(C)CC1)C(C)CC` (centres undefined), the T/C runs as follows: under setting [3], 92 % of control; under setting [4], 96 % of control; under setting [5], 120 % of control; under setting [6], 102 % of control.

In the case of `O=[N+]([O-])c1cc(S(=O)(=O)c2ccc(Nc3ccccc3)c([N+](=O)[O-])c2)ccc1Nc1ccccc1`, the T/C was 93 % of control (dose: 100.0 mg/kg/injection, schedule: Q04DX002 (ip), vehicle: gum acacia); 103 % of control (dose: 200.0 mg/kg/injection, schedule: Q04DX002 (ip), vehicle: gum acacia); 97 % of control (dose: 400.0 mg/kg/injection, schedule: Q04DX002 (ip), vehicle: gum acacia).

For the molecule `CC/C=C(\C)C1(CC)C(=O)NC(=S)NC1=O`, the T/C (dose: 75.0 mg/kg/injection, schedule: Q01DX001 (ip), vehicle: carboxymethylcellulose (CMC)) is 89 % of control.

As to `Cc1cc(CCCC(=O)O)c(C)s1`, the T/C was 101 % of control under setting [5]; 104 % of control under setting [6]; 101 % of control (dose: 400.0 mg/kg/injection, schedule: Q04DX003 (ip), vehicle: saline with Tween-80).

As for `OCC(O)C(O)C(O)C(O)CNC(CO)(CO)CO` (centres undefined), the T/C (dose: 100.0 mg/kg/injection, schedule: Q04DX002 (ip), vehicle: saline) is 104 % of control; the T/C (dose: 200.0 mg/kg/injection, schedule: Q04DX002 (ip), vehicle: saline) was 88 % of control; the T/C (dose: 400.0 mg/kg/injection, schedule: Q04DX002 (ip), vehicle: saline) is 95 % of control.

As to `[NH-]C(Cc1ccccc1)C(=O)O.[NH-]C(Cc1ccccc1)C(=O)O.[Ni+2]` (centres undefined), the T/C was 95 % of control under setting [1]; 95 % of control (dose: 25.0 mg/kg/injection, schedule: Q04DX003 (ip), vehicle: saline); 98 % of control (dose: 50.0 mg/kg/injection, schedule: Q04DX003 (ip), vehicle: saline).

For `O=C(Nc1ccccc1)Nc1ccc(Cl)c(Cl)c1`, the T/C by setting is: (dose: 100.0 mg/kg/injection, schedule: Q01DX001 (ip), vehicle: saline with Tween-80) 95 % of control; under setting [7], 101 % of control; (dose: 100.0 mg/kg/injection, schedule: Q04DX003 (ip), vehicle: Klucel (hydroxypropylcellulose) (HPC)) 107 % of control; (dose: 200.0 mg/kg/injection, schedule: Q01DX001 (ip), vehicle: saline with Tween-80) 97 % of control; under setting [8], 94 % of control; (dose: 200.0 mg/kg/injection, schedule: Q04DX003 (ip), vehicle: Klucel (hydroxypropylcellulose) (HPC)) 89 % of control. The T/C (dose: 400.0 mg/kg/injection, schedule: Q01DX001 (ip), vehicle: saline with Tween-80) is 90 % of control; the T/C under setting [9] was 95 % of control; the T/C (dose: 400.0 mg/kg/injection, schedule: Q04DX003 (ip), vehicle: Klucel (hydroxypropylcellulose) (HPC)) was 86 % of control.

Consider `CCc1ccc(N=C(C)c2c(O)cc(C)oc2=O)cc1`, for which the T/C is 96 % of control under setting [7], 100 % of control under setting [8] and 96 % of control under setting [9].

As for `NC(=O)N(CCCCN(N=O)C(N)=O)N=O`, the T/C is 152 % of control (dose: 40.0 mg/kg/injection, schedule: Q01DX001 (ip), vehicle: saline with Tween-80); 178 % of control (dose: 60.0 mg/kg/injection, schedule: Q01DX001 (ip), vehicle: saline with Tween-80); 246 % of control (dose: 93.0 mg/kg/injection, schedule: Q01DX001 (ip), vehicle: saline with Tween-80); 90 % of control (dose: 500.0 mg/kg/injection, schedule: Q01DX001 (ip), vehicle: saline with Tween-80).

`ClCCOCOCCCl`: the T/C runs as follows: (dose: 20.0 mg/kg/injection, schedule: Q04DX003 (ip), vehicle: Klucel (hydroxypropylcellulose) (HPC)) 104 % of control; (dose: 40.0 mg/kg/injection, schedule: Q04DX003 (ip), vehicle: Klucel (hydroxypropylcellulose) (HPC)) 104 % of control; (dose: 80.0 mg/kg/injection, schedule: Q04DX003 (ip), vehicle: Klucel (hydroxypropylcellulose) (HPC)) 101 % of control.

`COC(=O)C1C(O)CCC2CN3CCc4c([nH]c5ccccc45)C3CC21` (centres undefined): the T/C is 102 % of control (dose: 50.0 mg/kg/injection, schedule: Q01DX001 (ip), vehicle: saline); 92 % of control (dose: 75.0 mg/kg/injection, schedule: Q01DX Z (ip), vehicle: carboxymethylcellulose (CMC)); 91 % of control (dose: 100.0 mg/kg/injection, schedule: Q01DX001 (ip), vehicle: saline); 100 % of control (dose: 150.0 mg/kg/injection, schedule: Q01DX Z (ip), vehicle: carboxymethylcellulose (CMC)).

Turning to `c1cn2cncc2cn1`, the T/C was 90 % of control under setting [2]; 103 % of control (dose: 50.0 mg/kg/injection, schedule: Q01DX009 (ip), vehicle: saline); 88 % of control (dose: 100.0 mg/kg/injection, schedule: Q01DX009 (ip), vehicle: saline); 103 % of control (dose: 100.0 mg/kg/injection, schedule: Q04DX003 (ip), vehicle: saline); 94 % of control (dose: 200.0 mg/kg/injection, schedule: Q04DX003 (ip), vehicle: saline).

In the case of `Cn1c2nc(=O)n(-c3ccccc3)c(=O)c-2nc2c1CCCC2`, the T/C was 110 % of control (dose: 6.25 mg/kg/injection, schedule: Q01DX009 (ip), vehicle: saline with Tween-80); 106 % of control (dose: 12.5 mg/kg/injection, schedule: Q01DX009 (ip), vehicle: saline with Tween-80); 101 % of control (dose: 25.0 mg/kg/injection, schedule: Q01DX009 (ip), vehicle: saline with Tween-80); 103 % of control under setting [3]; 105 % of control under setting [4]; 100 % of control (dose: 200.0 mg/kg/injection, schedule: Q01DX009 (ip), vehicle: saline with Tween-80).
